From patent US11802135B2, “Lysophosphatidic acid derivative” (MITSUBISHI TANABE PHARMA CORPORATION, priority 2021, dated 2023)
pEC50: −log10 of the molar value. Where a name gives a salt, the structure may show the parent alone. Read-outs that look alike come from different tables or passages of the source.

Key:
human LPA1 receptor = molecular target: T1, human LPA1 receptor (Homo sapiens, UniProt Q92633); assay: LPA1/SRE-luc reporter assay in RH7777 cells stably expressing human LPA1 receptor and SRE-Luc2; format: cell-based; conditions: read-out: LPA1/SRE-luc EC50
T1 construct: expressed in transfected cells; host or cells: rat hepatocellular carcinoma cell line RH7777 (made 'similarly' to the LPA4 line)
T1 sequence (Q92633 whole entry): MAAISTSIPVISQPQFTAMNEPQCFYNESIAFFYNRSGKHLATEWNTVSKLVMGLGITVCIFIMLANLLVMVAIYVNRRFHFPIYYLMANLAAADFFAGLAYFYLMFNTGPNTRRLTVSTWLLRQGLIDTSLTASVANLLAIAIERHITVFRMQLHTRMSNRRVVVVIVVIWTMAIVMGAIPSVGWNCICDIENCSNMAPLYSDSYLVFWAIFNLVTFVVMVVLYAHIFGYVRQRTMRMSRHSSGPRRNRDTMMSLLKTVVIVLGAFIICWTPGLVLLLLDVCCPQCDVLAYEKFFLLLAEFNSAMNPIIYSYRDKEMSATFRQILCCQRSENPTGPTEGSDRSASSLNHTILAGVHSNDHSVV
Experimental: (§1) A stably expressing cell line that constantly expresses the human LPA4 receptor and SRE-Luc2 was established by the gene targeting introduction method of the rat hepatocellular carcinoma cell line RH7777 into rRosa26 site. Similarly, stably expressing cell lines for human LPA1 receptor and SRE-Luc2 were also established. Each cell line was seeded on a collagen-coated dish and maintained in culture, and cells were collected with trypsin EDTA and the required number (5×10^3 cells/well) was seeded on a 96-well plate. After culturing overnight at 37° C., LPA (Avanti Polar Lipids, Inc.) or each Example compound diluted with an assay medium added or not added with BSA was added, and the cells were cultured at 37° C. for 6 hr. Thereafter, a luciferase detection reagent (Bright-Glo, Promega) was added, and the chemiluminescence amount was quantified with an Envision (registered trade mark) multi-label counter (PerkinElmer) and used as an index of agonist activity.
(§2) The EC50 value of LPA or each Example compound was calculated using the […] Graph pad Prism for Windows ver.5.02 and ver.7.04. % Emax was expressed as the ratio of the maximum response (Emax) of LPA or each Example compound to the maximum response (Emax) of the positive control compound VPC 31144S (N-{(1S)-2-hydroxy-1-[(phosphonooxy)methyl]ethyl}(9Z) cctadec-9-enamide), with the Emax of the positive control compound VPC 31144S as 100%.

human LPA4 receptor = molecular target: T2, human LPA4 receptor (Homo sapiens, UniProt Q99677); assay: LPA4/SRE-luc reporter assay in RH7777 cells stably expressing human LPA4 receptor and SRE-Luc2; format: cell-based; conditions: for pEC50: read-out: LPA4/SRE-luc EC50
T2 construct: expressed in transfected cells; host or cells: rat hepatocellular carcinoma cell line RH7777, targeted integration at the rRosa26 site
T2 sequence (Q99677 whole entry): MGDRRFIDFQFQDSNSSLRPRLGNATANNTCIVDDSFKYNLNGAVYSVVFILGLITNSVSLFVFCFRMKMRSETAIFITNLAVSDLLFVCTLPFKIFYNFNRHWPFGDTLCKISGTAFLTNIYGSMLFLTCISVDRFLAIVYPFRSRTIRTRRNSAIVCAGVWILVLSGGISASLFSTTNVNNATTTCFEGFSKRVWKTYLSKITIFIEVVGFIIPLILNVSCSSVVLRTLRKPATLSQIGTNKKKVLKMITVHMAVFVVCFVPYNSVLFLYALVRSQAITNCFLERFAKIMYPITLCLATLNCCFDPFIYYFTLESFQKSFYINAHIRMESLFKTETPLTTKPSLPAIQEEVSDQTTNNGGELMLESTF
Experimental: as §1, §2

[1] = RH7777, BSA not added, Emax of positive control VPC 31144S as 100%, read-out: LPA4/SRE-luc % Emax
[2] = RH7777, read-out: LPA4/SRE-luc % Emax
[3] = RH7777, BSA added, Emax of positive control VPC 31144S as 100%, read-out: LPA4/SRE-luc % Emax

SMILES | pEC50 (human LPA1 receptor; BSA not added) | pEC50 (human LPA4 receptor; BSA not added) | Emax (human LPA4 receptor; [1]) | pEC50 (human LPA1 receptor; BSA added) | pEC50 (human LPA4 receptor; BSA added) | Emax (human LPA4 receptor; [3]) | Emax (human LPA4 receptor; [2])
CCCCCCc1ccc(CCCCC(=O)N2CC(OP(=O)(O)O)C2)cc1 [Example 7, 1-[5-(4-Hexylphenyl)pentanoyl]azetidin-3-yl dihydrogen phosphate] | < 5.00 | 7.43 | 125% |  |  |  | 
Cc1ccc(CCCCCCCCCC(=O)N2CC(OP(=O)(O)O)C2)cc1 [Example 10, 1-[10-(4-Methylphenyl)decanoyl]azetidin-3-yl dihydrogen phosphate] | < 5.00 | 7.52 |  |  |  |  | 101%
CCCc1ccc(CCCCCCCC(=O)N2CC(OP(=O)(O)O)C2)cc1 [Example 15, 1-[8-(4-Propylphenyl)octanoyl]azetidin-3-yl dihydrogen phosphate] | < 5.00 | 7.38 | 75% |  |  |  | 
CCc1ccc(CCCCCCCCC(=O)N2CC[C@@H](OP(=O)(O)O)C2)cc1 [Example 24, (3R)-1-[9-(4-Ethylphenyl)nonanoyl]pyrrolidin-3-yl dihydrogen phosphate ammonium salt] | < 5.00 | 8.25 | 138% |  |  |  | 
CCCCCCCCOc1ccc(CCCC(=O)N2CC(OP(=O)(O)O)C2)cc1 [Example 26, 1-{4-[4-(Octyloxy)phenyl]butanoyl}azetidin-3-yl dihydrogen phosphate] | < 5.00 | 8.00 |  |  |  |  | 125%
Cc1ccc(CCc2ccc(CCCC(=O)N3CC[C@@H](OP(=O)(O)O)C3)cc2)cc1 [Example 29, (3R)-1-(4-{4-[2-(4-Methylphenyl)ethyl]phenyl}butanoyl)pyrrolidin-3-yl dihydrogen phosphate ammonium salt] | < 5.00 | 7.35 | 145% |  |  |  | 
CCCCCCCc1ccc(CCCCC(=O)N2CC(OP(=O)(O)O)C2)cc1 [Example compound 59, 1-[5-(4-Heptylphenyl)pentanoyl]azetidin-3-yl dihydrogen phosphate ammonium salt] | < 5.00 | > 7.39 | 86% |  |  |  | 
CC(C)c1ccc(CCCCCCCCC(=O)N2CC(OP(=O)(O)O)C2)cc1 [Example compound 66, 1 {9-[4-(Propan-2-yl)phenyl]nonanoyl}azetidin-3-yl dihydrogen phosphate] | < 5.00 | > 7.39 | 280% |  |  |  | 
O=C(CCCCCCCCc1ccc(C2CC2)cc1)N1CC(OP(=O)(O)O)C1 [Example compound 87, 1-[9-(4-Cyclopropylphenyl)nonanoyl]azetidin-3-yl dihydrogen phosphate ammonium salt] |  |  |  | < 5.00 | 7.30 | 97% | 
O=C(CCCCc1cccc(OCCCCC2CCCCC2)c1)N1CC(OP(=O)(O)O)C1 [Example compound 88, 1-{5-[3-(4-Cyclohexylbutoxy)phenyl]pentanoyl}azetidinyl dihydrogen phosphate ammonium salt] |  |  |  | < 5.00 | 7.70 | 152% | 
O=C(CCCCCCCCc1ccc(C2CCCCC2)cc1)N1CC(OP(=O)(O)O)C1 [Example compound 93, 1-[9-(4-Cyclohexylphenyl)nonanoyl]azetidin-3-yl dihydrogen phosphate] |  |  |  | < 5.00 | > 7.39 | 113% | 
CCCCCCCc1ccc(CCCCC(=O)N2CC(OP(=O)(O)O)C2)c(C(F)(F)F)c1 [Example compound 100, 1-{5-[4-Heptyl-2-(trifluoromethyl)phenyl]pentanoyl}azetidin-3-yl dihydrogen phosphate ammonium salt] |  |  |  | < 5.00 | 7.40 | 108% | 
COc1ccc(CN(CCOP(=O)(O)O)C(=O)CCCCc2ccc(OCCc3ccc(OC(F)(F)F)cc3)cc2)cc1 [Example compound 115, 2-{(4-Methoxybenzyl)[5-(4-{2-[4-(trifluoromethoxy)phenyl]ethoxy}phenyl)pentanoyl]amino}ethyl dihydrogen phosphate ammonium salt] |  |  |  | < 5.00 | > 7.39 | 114% | 
CCCCCCc1ccc(CCCCCCCCC(=O)N2CC(OP(=O)(O)O)C2)cc1 [Example compound 118, 1-[9-(4-Hexylphenyl)nonanoyl]azetidin-3-yl dihydrogen phosphate] |  |  |  | < 5.00 | > 7.39 | 114% | 
COc1ccc(CN(CCOP(=O)(O)O)C(=O)CCCCCc2cccc(CCCCC3CCCCC3)c2)cc1 [Example compound 129, 2-[{6-[3-(4-Cyclohexylbutyl)phenyl]hexanoyl}(4-methoxybenzyl)amino]ethyl dihydrogen phosphate ammonium salt] |  |  |  | < 5.00 | > 7.39 | 120% | 
CCCCCCCCCCCOc1cccc(-c2ccnc(NC[C@@H](C)OP(=O)(O)O)c2)c1 [Example compound 133, (2R)-1-({4-[3-(Undecyloxy)phenyl]pyridin-2-yl}amino)propan-2-yl dihydrogen phosphate] |  |  |  | < 5.00 | > 7.39 | 101% | 
CCCCCCCCCCCOc1cccc(-c2ccnc(NC[C@@H](C)OP(=O)(O)O)n2)c1 [Example compound 134, (2R)-1-({4-[3-(Undecyloxy)phenyl]pyrimidinyl}amino)propan-2-yl dihydrogen phosphate] |  |  |  | < 5.00 | > 7.39 | 87% | 

Now from value to molecule, other results behind:

pEC50 (human LPA1 receptor; BSA not added) | pEC50 (human LPA4 receptor; BSA not added) | Emax (human LPA4 receptor; [1]) | pEC50 (human LPA1 receptor; BSA added) | pEC50 (human LPA4 receptor; BSA added) | Emax (human LPA4 receptor; [3]) | SMILES | Emax (human LPA4 receptor; [2])
< 5.00 | 7.55 | 119% |  |  |  | CCCCCCCCCOc1ccc(CCC(=O)N2CC(OP(=O)(O)O)C2)cc1 [Example 1, 1-{3-[4-(Nonyloxy)phenyl]propanoyl}azetidin-3-yl dihydrogen phosphate ammonium salt] | 
< 5.00 | 8.72 | 122% |  |  |  | CCCCCCCCCCOc1cccc(CCC(=O)N2CC[C@@H](OP(=O)(O)O)C2)c1 [Example 18, (3R)-1-{3-[3-(Decyloxy)phenyl]propanoyl}pyrrolidin-3-yl dihydrogen phosphate ammonium salt] | 
< 5.00 | 7.70 | 153% |  |  |  | CCCCCCCCCOc1ccc(CCC(=O)N2CC[C@@H](OP(=O)(O)O)C2)cc1 [Example 20, (3R)-1-{3-[4-(Nonyloxy)phenyl]propanoyl}pyrrolidin-3-yl dihydrogen phosphate ammonium salt] | 
< 5.00 | 7.48 | 121% |  |  |  | CCCCCCCCCCOc1cccc(CCC(=O)N(CCOP(=O)(O)O)CC(C)C)c1 [Example 33, 2-[{3-[3-(Decyloxy)phenyl]propanoyl}(2-methylpropyl)amino]ethyl dihydrogen phosphate ammonium salt] | 
< 5.00 | 7.57 | 86% |  |  |  | CCCCCCCCc1cccc(CCCCCCCC(=O)N2CC(OP(=O)(O)O)C2)c1 [Example compound 43, 1-[8-(3-Octylphenyl)octanoyl]azetidin-3-yl dihydrogen phosphate ammonium salt] | 
< 5.00 | 7.34 | 94% |  |  |  | CCCCCCCCCCOc1cccc(CCC(=O)N(CCCCOC)CCOP(=O)(O)O)c1 [Example compound 47, 2-[{3-[3-(Decyloxy)phenyl]propanoyl}(4-methoxybutyl)amino]ethyl dihydrogen phosphate ammonium salt] | 
< 6.00 | 7.64 | 79% |  |  |  | CCCCCCCCCCOc1cccc(CCC(=O)N(CCCCCO)CCOP(=O)(O)O)c1 [Example compound 50, 2-[{3-[3-(Decyloxy)phenyl]propanoyl}(5-hydroxypentyl)amino]ethyl dihydrogen phosphate ammonium salt] | 
< 5.00 | > 7.39 | 106% |  |  |  | CCCCCCCCCCOc1cccc(CCC(=O)N(CCOP(=O)(O)O)Cc2ccc(OC)cc2)c1 [Example compound 54, 2-[{3-[3-(Decyloxy)phenyl]propanoyl}(4-methoxybenzyl)amino]ethyl dihydrogen phosphate ammonium salt] | 
< 5.52 | > 7.39 | 148% |  |  |  | CCCCCCCCCCOc1cccc(CCC(=O)N(CCOP(=O)(O)O)Cc2ccncc2)c1 [Example compound 58, 2-[{3-[3-(Decyloxy)phenyl]propanoyl}(pyridin-4-ylmethyl)amino]ethyl dihydrogen phosphate ammonium salt] | 
 |  |  | < 5.00 | > 7.39 | 136% | CCCCCCCCCCOc1cccc(CCC(=O)N(CCOP(=O)(O)O)Cc2cccc(OC)c2)c1 [Example compound 95, 2-[{3-[3-(Decyloxy)phenyl]propanoyl}(3-methoxybenzyl)amino]ethyl dihydrogen phosphate ammonium salt] | 
 |  |  | < 5.00 | 7.33 | 121% | CCCc1ccc(CCCCCCCCC(=O)N(CCOP(=O)(O)O)Cc2cncs2)cc1 [Example compound 102, 2-{[9-(4-Propylphenyl)nonanoyl] (1,3-thiazol-5-ylmethyl)amino}ethyl dihydrogen phosphate ammonium salt] | 
